Assay results reported in the NIST ThermoML archive (doi:10.1021/je0500330).

What was measured:
[1] = refractive index (Na D-line) (dimensionless); conditions: 298.15 K; 101.33 kPa; Liquid; Standard Abbe refractometry
[2] = Liquid
[3] = xn = mol fraction of the nth substance listed; conditions: 298.15 K, 101.3 kPa, Liquid
[4] = refractive index (Na D-line) (dimensionless); xn = mol fraction of the nth substance listed; conditions: 298.15 K, 101.3 kPa, Liquid

CCC(C)CO (centres undefined) [2-methyl-1-butanol]
Conditions	refractive index
[1]	1.40872

[2], 298.15 K, 101.33 kPa
Conditions	mass density [kg/m3]	speed of sound [m/s]
Sing-around technique in a fixed-path interferometer	–	1253
Vibrating tube method	814.87	–

[2]
Conditions	vapor or sublimation pressure [kPa]
401.58 K	101.3
401.86 K	101.3

CCC(C)CO (centres undefined) [2-methyl-1-butanol] + CCO
Conditions	mass density, [3] [kg/m3]	refractive index, [4]	speed of sound, [3] [m/s]
x2 = 0.0486	814.11	1.40734	1247.7
x2 = 0.1013	813.23	1.40583	1245
x2 = 0.1523	812.31	1.40424	1241.4
x2 = 0.1987	811.39	1.40277	1237.6
x2 = 0.2503	810.38	1.40112	1233.6
x2 = 0.3004	809.33	1.39926	1229.6
x2 = 0.3486	808.22	1.39756	1225.3
x2 = 0.4003	807.02	1.39549	1221
x2 = 0.4502	805.74	1.39341	1215.9
x2 = 0.5004	804.41	1.3912	1210.5
x2 = 0.5502	803.01	1.38899	1205.4
x2 = 0.6004	801.43	1.38636	1199.4
x2 = 0.6503	799.81	1.38373	1193.1
x2 = 0.7	798.1	1.38109	1186.9
x2 = 0.8009	794.32	1.37475	1173
x2 = 0.8503	792.34	1.37134	1166
x2 = 0.9002	790.13	1.36758	1158.2
x2 = 0.9503	787.77	1.36358	1150.2
